Assay results as given in PubChem BioAssay AID1648 (Sanford-Burnham Center for Chemical Genomics, 2009).
The source made the active and inactive calls. The rule behind the calls is not given here.

target: Serine/threonine-protein kinase mTOR (Homo sapiens) (UniProt P42345); test: mTOR FRB domain ligand binding – biophysical, NMR (AID 1648); settings: NMR binding to FRB domain, chemical shift
Sequence (P42345 2015-2114): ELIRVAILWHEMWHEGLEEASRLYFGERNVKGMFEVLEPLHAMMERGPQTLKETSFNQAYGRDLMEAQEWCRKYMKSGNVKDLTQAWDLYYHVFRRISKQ

Structure (SMILES)	Kd
COC(=O)[C@]1(C)CC[C@]2(C)CC[C@]3(C)C4=CCc5c(cc(O)c(O)c5C)[C@]4(C)CC[C@@]3(C)C2C1 (some centres not stated)	> 4 mM (inactive)
C[C@H]1[C@H](C)CC[C@]2(CO)CC[C@]3(C)C(=CCC4[C@@]5(C)CC[C@H](O)C(C)(C)C5CC[C@]43C)[C@H]12 (some centres not stated)	> 4 mM (inactive)
O=C(O)c1cncc(-c2cccs2)c1	> 4 mM (inactive)
O=C(O)c1cccc(N2C(=O)C3CC=CCC3C2=O)c1 (configuration not stated)	> 4 mM (inactive)
O=C(O)c1cc2ccccc2cn1	> 4 mM (inactive)
CN(C)C(=O)c1ccc(-c2n[nH]c(=O)c3ccccc23)cc1	> 4 mM (inactive)
O=c1cc(-c2ccccc2)oc2c(O)c(O)ccc12	> 4 mM (inactive)
CCCS(=O)(=O)N1CCN(c2ccccc2F)CC1	> 4 mM (inactive)
CC(C)(C)C(=O)N1CCCC1C(=O)O (configuration not stated)	> 4 mM (inactive)
O=c1c2ccccc2nc2n1CCS2	> 4 mM (inactive)
NCc1ccc(-c2cccs2)s1	> 4 mM (inactive)
O=c1[nH]c(NCCO)nnc1Cc1ccccc1	> 4 mM (inactive)
O=c1cc(O)nc(SCc2ccccc2)[nH]1	> 4 mM (inactive)
CC(=O)O[C@@H]1CC2C(C)(C)C(=O)[C@@H]3O[C@@H]3[C@]2(C)C2CC[C@]3(C)C(=CC(=O)O[C@H]3c3ccoc3)[C@@]21C (some centres not stated)	> 4 mM (inactive)
COC(=O)Cc1cc(=O)n(-c2ccccc2)[nH]1	> 4 mM (inactive)
Nc1ccc(-c2cn3c(n2)SCC3)cc1	> 4 mM (inactive)
COc1cccc(S(=O)(=O)Nc2cccnc2)c1	> 4 mM (inactive)
CC(=O)Nc1c(C#N)c(C(C)(C)C)cn1C	> 4 mM (inactive)
Cc1ccccc1NC(=O)C1CC(=O)N=C(N)S1 (configuration not stated)	> 4 mM (inactive)
COc1ccc2c(c1)OCC(Cc1ccc(OC)c(OC(C)=O)c1)C2=O (configuration not stated)	> 4 mM (inactive)
Nc1cccnc1Oc1ccc(F)cc1F	> 4 mM (inactive)
COc1ccc2nc(N)sc2c1	> 4 mM (inactive)
O=C(O)C1CCCCN1Cc1ccccc1 (configuration not stated)	> 4 mM (inactive)
Nc1ccccc1C(=O)CC(N)C(=O)O (configuration not stated)	> 4 mM (inactive)

Structure (SMILES)	Kd
Cc1cc(=O)n2[nH]cnc2n1	> 4 mM (inactive)
COc1ccc(S(=O)(=O)N2CCC(C(N)=O)CC2)cc1	> 4 mM (inactive)
CC(=O)Nn1cc2c(=O)n(C)c(=O)n(C)c2c1	> 4 mM (inactive)
CC1(C)CC(=O)c2sc(N)nc2C1	> 4 mM (inactive)
O=C(c1ccc(F)cc1)N1CCOCC1	> 4 mM (inactive)
NC(=O)CSc1nnc2ccc3ccccc3n12	> 4 mM (inactive)
O=S1(=O)C=C(Nc2ccccc2)CC1	> 4 mM (inactive)
OCc1ccncc1	> 4 mM (inactive)
O=C(NCO)c1ccccc1Cl	> 4 mM (inactive)
O=C(O)c1ccc(-c2ccccn2)s1	> 4 mM (inactive)
Cn1c(=O)c2cn3ncccc3c2n(C)c1=O	> 4 mM (inactive)
Cc1cc(N)ccc1NC(=O)c1ccco1	> 4 mM (inactive)
Cc1n[nH]c(=S)n1-c1ccc(C(=O)O)cc1	> 4 mM (inactive)
Cc1nnc2sc(-c3ccco3)nn12	> 4 mM (inactive)
CCOC(=O)C1CCN(Cc2ccccc2)CC1	> 4 mM (inactive)
COC(=O)CCC(C)[C@H]1CCC2C3C(C[C@H](O)[C@@]21C)[C@@]1(C)CC[C@@H](O)C[C@H]1C[C@H]3O (some centres not stated)	> 4 mM (inactive)
Cc1cc(NC(=O)c2cnn3cccnc23)no1	> 4 mM (inactive)
Cc1nc(-c2cnccn2)sc1C(=O)O	> 4 mM (inactive)
COc1c(-c2coc3cc4c(cc3c2=O)CC(O)C(C)(C)O4)ccc2c1C=CC(C)(C)O2 (configuration not stated)	> 4 mM (inactive)
C[C@H]1[C@H]2CCC3C4CC=C5C[C@@H](N(C)C)CC[C@]5(C)C4CC[C@@]32CN1C (some centres not stated)	> 4 mM (inactive)
O=C(O)C1COc2ccccc2C1 (configuration not stated)	> 4 mM (inactive)
Oc1ccc([C@H]2Oc3cc(O)cc(O)c3C[C@H]2O)cc1	> 4 mM (inactive)
COc1ccc(-c2ccc(OC)cc2C(=O)O)cc1	> 4 mM (inactive)
O=S(=O)(O)c1cc[n+]([O-])cc1	> 4 mM (inactive)

Structure (SMILES)	Kd
CC(C)=CC(=O)Nc1ccccc1C(N)=O	> 4 mM (inactive)
COC(=O)c1sccc1S(=O)(=O)N1CCCC1	> 4 mM (inactive)
CC(C)(C)CC(=O)N1CCC(C(N)=O)CC1	> 4 mM (inactive)
Cc1sc2nc(C)n(NC(N)=O)c(=O)c2c1C	> 4 mM (inactive)
COc1ccc2c(c1)C(NC(C)=O)C(=O)N2C (configuration not stated)	> 4 mM (inactive)
COc1cc(O)c2c(=O)cc(-c3ccc(OC)c(-c4c(O)cc(O)c5c(=O)cc(-c6ccc(O)cc6)oc45)c3)oc2c1	> 4 mM (inactive)
O=c1[nH]cc(Nc2ccccc2)c(=O)[nH]1	> 4 mM (inactive)
O=C(O)c1csc(-c2cccnc2)n1	> 4 mM (inactive)
CC1=C2C(=CO[C@H](C)[C@H]2C)C(=O)C(C(=O)O)=C1O	> 4 mM (inactive)
Cc1nnc(Nc2cccnc2)[nH]c1=O	> 4 mM (inactive)
NC(=O)Cc1nc(-c2ccc(F)cc2)cs1	> 4 mM (inactive)
O=C(O)C1CCCN1Cc1c[nH]c2ccccc12 (configuration not stated)	> 4 mM (inactive)
CCOC(=O)C1CCC(=O)c2cccn21 (configuration not stated)	> 4 mM (inactive)
NC1=NC(=O)/C(=C\c2cccc(C(=O)O)c2)S1	> 4 mM (inactive)
COc1ccc(/C=C/c2cc(O)cc(O)c2)cc1	> 4 mM (inactive)
C=CCCCCCCCCCCCC(O)CC(O)CO (configuration not stated) (tested in a mixture with another compound)	> 4 mM (inactive)
C=CCSCC=C	> 4 mM (inactive)
CCOc1ccc2ccccc2c1C(=O)N1CCOCC1	> 4 mM (inactive)
Cc1ccc(-c2nn3c(C)nnc3s2)cc1N	> 4 mM (inactive)
COCC(=O)Nc1c(C(N)=O)oc2ccccc12	> 4 mM (inactive)
COC(=O)Nc1ccc2ncn(C)c(=O)c2c1	> 4 mM (inactive)
COc1cc(C(=S)N2CCOCC2)ccc1O	> 4 mM (inactive)
Cc1nn(C)c(C)c1C(=O)O	> 4 mM (inactive)
O=C(Nc1ccc2c(c1)OCCO2)c1c(F)cccc1F	> 4 mM (inactive)

Structure (SMILES)	Kd
Cc1c(/C=N\n2cnnc2)c2ccccc2n1C	> 4 mM (inactive)
CCc1ccc(/C=N/n2cnnc2)cc1	> 4 mM (inactive)
Cc1cc(C)n2nc(C(=O)Nc3cccnc3)nc2n1	> 4 mM (inactive)
CC1=NNC(=O)C1CCc1ccncc1 (configuration not stated)	> 4 mM (inactive)
NC(=O)c1ccsc1NC(=O)c1ccccc1[N+](=O)[O-]	> 4 mM (inactive)
CS(=O)(=O)Nc1ccc(C(=O)N2CCCCC2)cc1	> 4 mM (inactive)
CCOC(=O)CSCC(=O)Nc1nccs1	> 4 mM (inactive)
CNC(=O)c1ccccc1-c1ccccc1	> 4 mM (inactive)
Cc1cc(NC(=O)c2ccc3c(c2)OCO3)no1	> 4 mM (inactive)
COc1ccc(/C=N/n2cn[nH]c2=S)cc1	> 4 mM (inactive)
Cc1ccc(C(=O)Nn2cnnc2)c(Cl)c1	> 4 mM (inactive)
O=C(O)c1ccc(-c2cnco2)cc1	> 4 mM (inactive)
CSc1ccccc1NC(=O)c1c(C)noc1C	> 4 mM (inactive)
CCOC(=O)c1c(C)nc2cc(C)ccn12	> 4 mM (inactive)
NCc1ccc2c(c1)OCO2	> 4 mM (inactive)
CC(=O)O[C@@H]1CC2C(C)(C)C(=O)C=C[C@]2(C)C2CC[C@]3(C)C(=CC(=O)O[C@H]3c3ccoc3)[C@@]21C (some centres not stated)	> 4 mM (inactive)
O=C1N=C(N2CCOCC2)S/C1=C\c1cccnc1	> 4 mM (inactive)
COC(=O)C[C@@H]1C2(C)C(=O)[C@@H](CC3=C4C=C(OC)O[C@@H](c5ccoc5)[C@]4(C)CCC32)[C@H](O)C1(C)C (some centres not stated)	> 4 mM (inactive)
Oc1cnc2ccccc2c1CN1CCOCC1	> 4 mM (inactive)
O=C(NCc1n[nH]c(=O)c2ccccc12)C1CC1	> 4 mM (inactive)
NCCc1ccc(S(N)(=O)=O)cc1	> 4 mM (inactive)
O=C(O)Cc1n[nH]c(=O)c2ccccc12	> 4 mM (inactive)
Cc1c(/C=N/O)cnn1C	> 4 mM (inactive)
NC(=O)C1CCN(S(=O)(=O)c2ccccc2)CC1	> 4 mM (inactive)

Structure (SMILES)	Kd
Nc1[nH]c(=S)ncc1S(=O)(=O)c1ccccc1	> 4 mM (inactive)
O=C(c1ccco1)N1CCn2c1nc1ccccc12	> 4 mM (inactive)
CC(C)=CCC/C(C)=C/CC/C(C)=C/CC/C(C)=C/CC/C(C)=C/CC/C(C)=C/CC/C(C)=C/CC/C(C)=C/CC/C(C)=C/CO	> 4 mM (inactive)
CC(=O)O[C@@H]1CC2C(C)(C)[C@H](O)CC[C@]2(C)C2CC[C@@]3(C)[C@H](c4ccoc4)OC(=O)C4OC43[C@@]21C (some centres not stated)	> 4 mM (inactive)
CC(CC(=O)NN)C1(O)CCCCC1 (configuration not stated)	> 4 mM (inactive)
O=C(O)CN1CCN(C2CCCC2)CC1	> 4 mM (inactive)
c1ccc2[nH]c(CCn3cncn3)nc2c1	> 4 mM (inactive)
O=C1C2CCCCC2C(=O)N1Cc1cccnc1 (configuration not stated)	> 4 mM (inactive)
N#CCc1nc2ccccc2s1	> 4 mM (inactive)
Cc1occc1C(=O)N1CCN(S(C)(=O)=O)CC1	> 4 mM (inactive)
O=C1C=C(Nc2ccc(O)cc2)c2ccccc2C1=O	> 4 mM (inactive)
Cc1cccc(N2CCN(C(=O)c3ccncc3)CC2)c1C	> 4 mM (inactive)
c1ccc2[nH]c(-c3cscn3)nc2c1	> 4 mM (inactive)
OCc1ccc2nsnc2c1	> 4 mM (inactive)
O=S1(=O)CCC(NC(=S)Nc2ccccc2)C1 (configuration not stated)	> 4 mM (inactive)
O=C(CN1CCOCC1)Nc1nccs1	> 4 mM (inactive)
O=c1ccn([C@@H]2O[C@H](COP(=O)(O)OP(=O)(O)OP(=O)(O)O)[C@@H](O)[C@H]2O)c(=O)[nH]1	> 4 mM (inactive)
Cn1cc(Cl)c(C(=O)NC2CCCC2)n1	> 4 mM (inactive)
CC1CN(Cc2ccccn2)CCC1=O (configuration not stated)	> 4 mM (inactive)
NCc1ccc(S(N)(=O)=O)cc1	> 4 mM (inactive)
COc1cccc(/C=N/N=C2/NC(=O)CS2)c1	> 4 mM (inactive)
